Source: article PMC11472313, “Development of Fragment-Based Inhibitors of the Bacterial Deacetylase LpxC with Low Nanomolar Activity” (Journal of Medicinal Chemistry, 2024)
Converted amounts (≈) assume the structure as drawn. “And” between values parts separate entries of the source, which are not always exact repeats. Equal entries are not always repeated.

Key:
E. coli D22 [1] = experiment: disc diffusion assay; assay type: cell-based; details: 0.15 μmol per 6 mm disc
Procedure: (§1) Besides measuring the inhibitory activities toward E. coli LpxC C63A, the antibacterial activities of the synthesized hydroxamic acids were evaluated by determining their minimal inhibitory concentrations (MIC) in broth dilution tests as well as by performing disc diffusion assays (Table 1).
(§2) The disc diffusion assays against E. coli BL21(DE3) and the defective strain E. coli D22 were performed as follows: liquid cultures of the bacteria were grown overnight in lysogeny broth (LB)[73] at 37 °C and 200 rpm. 150 μL of an overnight cell suspension was spread evenly onto LB agar plates. 0.15 μmol of each compound (dissolved in 10 or 15 μL DMSO) were applied onto circular filter paper (Ø = 6 mm, Cytiva). Pure DMSO, serving as a negative control, and CHIR-090, serving as a positive control, were also spotted. The agar plates were incubated overnight at 37 °C, and the diameter of the zone of growth inhibition was measured for each compound. Each assay was performed at least three times on separate days.

E. coli BL21(DE3) [2] = experiment: disc diffusion assay; assay type: cell-based; details: 0.15 μmol per 6 mm disc
Procedure: as §1, §2

E. coli LpxC C63A = target: T1, E. coli LpxC C63A (Escherichia coli, UniProt P0A725, C63A); experiment: fluorescence-based E. coli LpxC C63A enzyme inhibition assay; assay type: biochemical; details: for fold higher LpxC inhibitory activity than its enantiomer (eudysmic ratio): E. coli LpxC C63A, (S) versus (R); for Ki: Ki E. coli LpxC C63A, from IC50 via Cheng–Prusoff
T1 construct: made in house; host or cells: E. coli BL21(DE3)
T1 sequence (P0A725 whole entry C63A): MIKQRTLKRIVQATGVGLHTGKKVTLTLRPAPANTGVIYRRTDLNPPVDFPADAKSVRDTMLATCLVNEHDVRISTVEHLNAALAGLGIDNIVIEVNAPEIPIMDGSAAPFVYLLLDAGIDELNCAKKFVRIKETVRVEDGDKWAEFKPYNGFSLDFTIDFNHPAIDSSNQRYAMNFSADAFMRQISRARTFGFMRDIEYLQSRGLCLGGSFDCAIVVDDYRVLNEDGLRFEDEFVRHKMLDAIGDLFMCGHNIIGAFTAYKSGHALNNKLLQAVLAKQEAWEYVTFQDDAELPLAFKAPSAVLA
Procedure: In order to determine the inhibitory activities of the compounds of interest toward E. coli LpxC, a fluorescence-based enzyme assay was deployed, in which the formed deacetylated natural product UDP-3-O-[(R)-3-hydroxymyristoyl]glucosamine (2) is transformed into a fluorescent isoindole with o-phthaldialdehyde and 2-mercaptoethanol.[48],[49] […] The KM of E. coli LpxC C63A was determined experimentally using a mass spectrometry-based LpxC assay (Figure S8, Supporting Information, vide infra).
A fluorescence-based microplate assay for LpxC activity was performed as described by Clements et al.[48] The wells in a black, nonbinding, 96-well fluorescence microplate (Greiner Bio One, Frickenhausen) were filled with 93 μL of 26.9 μM UDP-3-O-[(R)-3-hydroxymyristoyl]-N-acetylglucosamine in assay buffer [40 mM sodium morpholinoethanesulfonic acid (pH 6.0), 80 μM dithiothreitol, 0.02% Brij 35]. In order to assay the inhibitors at final concentrations from 20 nM up to 20 μM, 2 μL of a respective dilution of the compounds in DMSO were added. The addition of 5 μL of a solution of purified LpxC (10 μg mL^–1) in assay buffer led to final concentrations of 25 μM UDP-3-O-[(R)-3-hydroxymyristoyl]-N-acetylglucosamine, 15 nM E. coli LpxC C63A, 2% DMSO, and from 20 nM up to 20 μM inhibitor. The microplate was incubated for 30 min at 37 °C in a plate shaker. Then, the biochemical reaction was stopped by adding 40 μL of 0.625 M sodium hydroxide. The reaction mixture was further incubated for 10 min and neutralized by adding 40 μL of 0.625 M acetic acid. The deacetylated product UDP-3-O-[(R)-3-hydroxymyristoyl]glucosamine was converted into a fluorescing isoindole by adding 120 μL of an o-phthaldialdehyde-2-mercaptoethanol solution, which was prepared by dissolving 10 mg of o-phthaldialdehyde in 1 mL of methanol, diluting the mixture with 24 mL of a sodium borate buffer (0.1 M), and finally adding 2.5 μL of 2-mercaptoethanol.[49] Fluorescence was measured with a TriStar^2 S LB 942 plate reader (Berthold, Bad Wildbad) at 340 nm excitation and 460 nm emission wavelengths. Each assay was performed at least three times on separate days. The IC50 values were calculated via Probit-log concentration graphs with the aid of the software Origin and were subsequently converted into Ki values using the Cheng–Prusoff equation.[75],[76]

E. coli D22 [3] = experiment: MIC, broth microdilution; assay type: cell-based; details: Escherichia coli, 20 h, 37 °C, LB
Procedure: as §1
(§3) The MIC values of the compounds were determined by means of the microdilution method using 96-well plates.
(§4) The overnight suspension was diluted 1:1000 in fresh LB. 10 μL of a 2-fold dilution series of the compounds in DMSO and 90 μL of LB were dispensed to each well of a 96-well plate. Then, 100 μL of the inoculated medium was added, resulting in 5 × 10^5 cfu mL^–1, 5% DMSO, and a final concentration range of the test compounds between 64 and 0.016 μg mL^–1. The plates were incubated for 20 h at 37 °C. The MIC was defined as the lowest concentration of the compounds that prevented visible growth after incubation. Each assay was performed at least three times on separate days.

E. coli BL21(DE3) [4] = experiment: MIC, broth microdilution; assay type: cell-based; details: 20 h, 37 °C, LB; for MIC: Escherichia coli
Procedure: as §1, §3, §4

E. coli TOP10 = experiment: disc diffusion assay; assay type: cell-based; details: 0.15 μmol per 6 mm disc
Procedure: (§5) In the performed disc diffusion assays, indole derivatives (S)-13h, (S)-13i, and (S)-13j caused promising halos of growth inhibition.
(§6) The disc diffusion assays against E. coli TOP10 (Thermo Fisher, Waltham, USA), E. coli ATCC 35218, K. pneumoniae ATCC 700603, and P. aeruginosa ATCC 27853 were performed as follows: the bacteria were grown overnight on a Columbia blood agar plate (Oxoid, Basingstoke, UK), and one colony was suspended in sterile saline to yield a suspension of 0.5 McFarland standard. Using a sterile swab, the suspension was spread evenly onto Mueller–Hinton agar (Oxoid, Basingstoke, UK). 0.15 μmol of each compound (dissolved in 10 μL DMSO) was applied onto circular 6 mm diameter filter paper disks, which were then placed on the agar. After incubating the agar plates for 20 h at 37 °C, the diameter of the zone of growth inhibition was measured for each compound.

E. coli ATCC 35218 = experiment: disc diffusion assay; assay type: cell-based; details: 0.15 μmol per 6 mm disc
Procedure: as §5, §6

P. aeruginosa ATCC 27853 = experiment: disc diffusion assay; assay type: cell-based; details: 0.15 μmol per 6 mm disc
Procedure: as §5, §6

[5] = test system: K. pneumoniae ATCC 700603; experiment: disc diffusion assay; assay type: cell-based, Klebsiella pneumoniae; details: 0.15 μmol per 6 mm disc
Procedure: as §5, §6

Compound | Inhibition zone E. coli D22 (E. coli D22 [1]) | Inhibition zone E. coli BL21(DE3) (E. coli BL21(DE3) [2]) | fold higher LpxC inhibitory activity than its enantiomer (eudysmic ratio) (E. coli LpxC C63A) | Ki (E. coli LpxC C63A) | MIC (E. coli D22 [3]) | MIC (E. coli BL21(DE3) [4]) | Inhibition zone E. coli TOP 10 (E. coli TOP10) | Inhibition zone E. coli ATCC 35218 (E. coli ATCC 35218) | Inhibition zone P. aeruginosa ATCC 27853 (P. aeruginosa ATCC 27853) | Inhibition zone K. pneumoniae ATCC 700603 [5] | MIC E. coli BL21(DE3) (E. coli BL21(DE3) [4])
O=C(NO)[C@H](COCc1ccccc1)OCc1ccc(C#Cc2ccc(CN3CCOCC3)cc2)cc1 [(S)-11a, (S)-3-(Benzyloxy)-N-hydroxy-2-[(4-{[4-(morpholinomethyl)phenyl]ethynyl}benzyl)oxy]propanamide] | 15.4 ± 2.4 mm | ≤6 mm | 6 fold | 606 ± 356 nM | 0.5 µg/mL (≈ 0.999 µM) | > 32 µg/mL | – | – | – | – | –
O=C(NO)[C@H](CNCc1ccccc1)OCc1ccc(C#Cc2ccc(CN3CCOCC3)cc2)cc1 [(S)-12a, (S)-3-(Benzylamino)-N-hydroxy-2-[(4-{[4-(morpholinomethyl)phenyl]ethynyl}benzyl)oxy]propanamide] | 24.3 ± 2.1 mm | 13.0 ± 1.0 mm | – | 4590 ± 1260 nM | 0.5 µg/mL (≈ 1 µM) | 16 µg/mL (≈ 32 µM) | – | – | – | – | –
O=C(NC[C@H](OCc1ccc(C#Cc2ccc(CN3CCOCC3)cc2)cc1)C(=O)NO)c1ccccc1 [(S)-13a, (S)-N-{3-(Hydroxyamino)-2-[(4-{[4-(morpholinomethyl)phenyl]ethynyl}benzyl)oxy]-3-oxopropyl}benzamide] | 26.3 ± 1.5 mm | 15.7 ± 1.6 mm | 17 fold | 150 nM and 149 nM | 0.13 µg/mL (≈ 0.253 µM) | 8 µg/mL (≈ 15.6 µM) | 23.3 ± 0.6 mm | 19.3 ± 0.6 mm | 7.0 ± 1.0 mm | 7.0 ± 1.0 mm | –
O=C(NC[C@H](OCc1ccc(C#Cc2ccc(CN3CCOCC3)cc2)cc1)C(=O)NO)c1cccc(-c2ccccc2)c1 [(S)-13c] | 19.0 ± 1.5 mm | ≤6 mm | – | 42 nM and 41.5 nM | 0.13 µg/mL (≈ 0.22 µM) | > 16 µg/mL | 8.0 ± 0 mm | 7.7 ± 1.5 mm | 6.3 ± 0.6 mm | <6 mm | –
O=C(NC[C@H](OCc1ccc(C#Cc2ccc(CN3CCOCC3)cc2)cc1)C(=O)NO)c1ccc(Oc2ccccc2)cc1 [(S)-13d] | 9.3 ± 1.6 mm | ≤6 mm | – | 323 ± 126 nM | 0.25 µg/mL (≈ 0.413 µM) | > 16 µg/mL | <6 mm | 7.0 ± 1.0 mm | 6.3 ± 0.6 mm | <6 mm | –
O=C(NC[C@H](OCc1ccc(C#Cc2ccc(CN3CCOCC3)cc2)cc1)C(=O)NO)c1ccc2ccccc2n1 [(S)-13e] | 16.0 ± 2.5 mm | ≤6 mm | – | 377 ± 83 nM | 0.25 µg/mL (≈ 0.443 µM) | > 16 µg/mL | 8.0 ± 0 mm | 7.7 ± 1.5 mm | 6.3 ± 0.6 mm | <6 mm | –
O=C(NC[C@H](OCc1ccc(C#Cc2ccc(CN3CCOCC3)cc2)cc1)C(=O)NO)c1cnc2ccccc2c1 [(S)-13f] | 29.0 ± 1.0 mm | 11.5 ± 2.1 mm | – | 117 ± 21 nM | 0.25 µg/mL (≈ 0.443 µM) | > 16 µg/mL | 18.0 ± 6.0 mm | 15.0 ± 0 mm | <6 mm | <6 mm | –
O=C(NC[C@H](OCc1ccc(C#Cc2ccc(CN3CCOCC3)cc2)cc1)C(=O)NO)c1cc2ccccc2[nH]1 [(S)-13g] | 23.0 ± 1.0 mm | 10.0 ± 1.0 mm | – | 87 ± 58.5 nM | 0.063 µg/mL (≈ 0.114 µM) | 4 to 8 µg/mL (≈ 7.24 to 14.5 µM) | 16.0 ± 6.1 mm | 10.7 ± 0.6 mm | <6 mm | <6 mm | 8.0 µg/mL (≈ 14.5 µM)
O=C(NC[C@H](OCc1ccc(C#Cc2ccc(CN3CCOCC3)cc2)cc1)C(=O)NO)c1c[nH]c2ccccc12 [(S)-13h] | 29.3 ± 1.6 mm | 19.7 ± 1.6 mm | – | 10.7 ± 1.2 nM | 0.031 µg/mL (≈ 0.0561 µM) | 1 to 4 µg/mL (≈ 1.81 to 7.24 µM) | 18.7 ± 5.8 mm | 19.0 ± 1.0 mm | 7.0 ± 1.0 mm | 6.7 ± 1.2 mm | 1.0 µg/mL (≈ 1.81 µM)
O=C(NC[C@H](OCc1ccc(C#Cc2ccc(CN3CCOCC3)cc2)cc1)C(=O)NO)c1cccc2[nH]ccc12 [(S)-13i] | >30 mm | 20.4 ± 1.6 mm | – | 15.3 ± 3.6 nM | 0.031 µg/mL (≈ 0.0561 µM) | – | 23.0 ± 1.0 mm | 17.0 ± 3.5 mm | 6.3 ± 0.6 mm | 7.3 ± 1.2 mm | –
O=C(NC[C@H](OCc1ccc(C#Cc2ccc(CN3CCOCC3)cc2)cc1)C(=O)NO)c1ccc2[nH]ccc2c1 [(S)-13j] | 29.0 ± 1.6 mm | 20.0 ± 1.0 mm | – | 9.5 nM and 9.45 nM | 0.031 µg/mL (≈ 0.0561 µM) | 1 to 4 µg/mL (≈ 1.81 to 7.24 µM) | 22.3 ± 3.8 mm | 21.0 ± 1.0 mm | 8.3 ± 0.6 mm | 8.0 ± 1.7 mm | 2.0 µg/mL (≈ 3.62 µM)
O=C(NO)[C@H](CN(Cc1ccccc1)Cc1ccccc1)OCc1ccc(C#Cc2ccc(CN3CCOCC3)cc2)cc1 [(S)-37, (S)-3-(Dibenzylamino)-N-hydroxy-2-[(4-{[4-(morpholinomethyl)phenyl]ethynyl}benzyl)oxy]propanamide] | 7.7 ± 1.2 mm | ≤6 mm | – | > 2540 nM | 16 µg/mL (≈ 27.1 µM) | > 16 µg/mL | – | – | – | – | –
